≈ marks a conversion by molar mass, not a printed value.

Series [1] concerns Staphylococcus aureus ATCC 6538 P (strain A). Put plainly: Inhibition halos, diffusion method, strain A. It counts as cell-based. An excerpt: (§1) The inhibition halos were obtained through the diffusion method (Farmacopea Ufftclale Italiana, IX ed., page 315), using a culture medium “Mueller-Hinton Medium Difco, with a low thymine and thymidine content, in sterile Petri plates (9 cm in diameter), with Tryptic Soy Broth (Difco).
(§2) For the sensitivity test, both paper filtering disks, imbibed of a fixed quantity of antibiotic and the relevant adduct disks, having the same total dose, but a lower molar ratio of the active principle were prepared.
(§3) To produce a bacterial growth, a strain of Staphylococcus aureus ATCC 6538 P (strain A) and two strains of field Staphylococcus aureus (strains B and C) were used.
(§4) The culture broths were prepared placing a loop of bacterial coating of an agar culture (12 h) in a test tube containing sterile Tryptic Soy Broth (5 ml), successively incubated at 37° C. for 4 hours.
(§5) When necessary, the suspensions have been diluted with sterile water in order to obtain a turbidity similar to the reference standard (0.5 McFarland). The Mueller-Hinton culture medium (150 ml) was sterilized at 121° C. for 15 minutes; a part of it was positioned on sterile Petri plates (9 cm in diameter), was let to solidify, while another part was cooled at approx. 45° C., was inoculated with the bacterial suspensions as above prepared (15 ml) and poured onto the solidified agar surface (10 ml per plate).
(§6) The sown plates were let dry (open) under a laminar flow hood for 15 minutes, then the disks were placed on their surface (four each plate), i.e. the adduct and antibiotic according to the two desired concentrations. The prepared plates (five each tests) were overturned and incubated at 37° C. for 16 hours. After this interval, the inhibition halos were produced. The results are shown in Table 1, where F.U. indicates the dosage recommended by Farmacopea Ufficiale Italiana, IX ed., vol. 1

In series [2] the test system is field Staphylococcus aureus (strain B). Put plainly: Inhibition halos, diffusion method, strain B. It counts as cell-based.
From the text: as §1, §2, §3, §4, §5, §6

The subject of series [3] is field Staphylococcus aureus (strain C). Nature of the series: Inhibition halos, diffusion method, strain C. It counts as cell-based.
From the text: as §1, §2, §3, §4, §5, §6

Series [4] has as its system Staphylococcus aureus ATCC 6538 P (strain A). Nature of the series: Minimum inhibiting concentration (MIC) in vitro, dilutions in liquid medium, strain A. It is filed as cell-based. The conditions noted are these: Mueller-Hinton broth pH=7.4, 37° C. 18-24 hours; for MIC: Staphylococcus aureus, ATCC6538. How it is done: (§7) To produce a bacterial growth, a strain of Staphylococcus aureus ATCC 6538 P (strain A) and two strains of field Staphylococcus aureus (strains B and C) were used. […] A drop of broth (dilution 1:10) was added to all test tubes, which were incubated at 37° C. for 18-24 hours. Then, the test tube with the highest dilution free of any turbidity was considered as the one containing the minimum inhibiting concentration (MIC).

In series [5] the test system is field Staphylococcus aureus (strain B). Put plainly: Minimum inhibiting concentration (MIC) in vitro, dilutions in liquid medium, strain B. To be noted: Mueller-Hinton broth pH=7.4, 37° C. 18-24 hours; for MIC: Staphylococcus aureus. It is filed as cell-based. The protocol:
as §7

Series [6] relates to field Staphylococcus aureus (strain C). Nature of the series: Minimum inhibiting concentration (MIC) in vitro, dilutions in liquid medium, strain C. It counts as cell-based. To be noted: Mueller-Hinton broth pH=7.4, 37° C. 18-24 hours; for MIC: Staphylococcus aureus. The protocol:
as §7

Series [7] relates to Staphylococcus aureus. Nature of the series: In vivo activity in mice infected with Staphylococcus aureus (ulcerative dermatitis), bacteriologic test. To be noted: for Bacteriologic test after 5 days of therapy, negative / Bacteriologic test after 5 days of therapy, positive: number of subjects; for % of recovery: subjects with post-infective clinical symptoms, after 5 days of therapy. Also noted: species or system albino mice. How it is done:
The antibiotics and the respective adducts were used in solution with distilled water for injectables or with purified water for oral use. Common albino mice (average weight: 28 g), previously infected with Staphylococcus aureus (which is not resistant to the examined antibiotics), that had developed ulcerative dermatitis, with localized abscesses and popodermatitis […] were treated with the prepared solutions every 24 hours for 5 days. After this treatment, a bacteriologic checking through isolation was performed, using pads on the animal skin and inoculating the sample drawn from the […] on the plate.

In series [8] the test system is S. aureus Smith BT13. Nature of the series: Murine model of Staphylococcus aureus subcutaneous abscess. To be noted: for Size scored: abscess size scored 0 to 3 per mouse, group sum; for Total abscesses in 30 mice / Total score (size scored) in 30 mice: cephalosporin, sum of 25, 50, 100 mg/kg groups; for Cured infected mice of 30: parent cephalosporin, 25, 50, 100 mg/kg groups together. It counts as in vivo, swiss mice. How it is done:
200 Male swiss mice were housed in temperature and humidity controlled animal rooms. The body weight on the day of infection was 25 g (SD 1.2, no 10). Culture media Brain Heart Infusion Broth (Difco) (BHI) and Brain Heart Infusion Agar (Merck) (BHIA) were prepared according to the manufacturer instructions and autoclaved for 15 mins at 121° C. S. aureus Smith BT13 was used at infecting organism. It was stored frozen at −80° C. […] For each test article, a stock solution was prepared by dissolving the drug with 5 ml of water for injectables (5 mg/ml drug concentration for cephalosporins and 3 mg/ml for the adducts). Dilutions 1:2 and 1:4 were prepared using the same vehicles. All solutions were prepared immediately before use. […] At 6 h after inoculation, groups of 10 mice were dosed intraperitoneally with 0.5 ml either of one of the antibiotic solutions, while an untreated control group of 10 mice was injected intraperitoneally with 0.5 ml sterile water. […] On the third day after infection, all mice were sacrificed and autopsied. Presence and size of abscesses were recorded. […] The activity of all compounds was compared by the non parametric Mann-Whitney U test. Statistical significance was for p<0.05.

Series [9] is described as follows: Solubility in water. It is filed as physicochemical. To be noted: of water, pH=4.8.
[10] abbreviates: disk dose 0.64 μg (F.U.) (adduct: same total dose).
Setting [11] is: disk dose 1.56 μg (F.U.) (adduct: same total dose).
Where [12] appears, read: subjects with post-infective clinical symptoms (YES), treated every 24 hours for 5 days.
Setting [13] is: disk dose 4 μg (adduct: same total dose), 37° C. 16 hours.
[14] abbreviates: disk dose 8 μg (adduct: same total dose).
The mark [15] stands for this setting: infected subjects without post-infective clinical symptoms (NO).
Setting [16] is: disk dose 6 μg (adduct: same total dose).

As usually defined, the MIC is the lowest concentration found to suppress growth. As for `Cc1nnc(SCC2=C(C(=O)O)N3C(=O)[C@@H](NC(=O)Cn4cnnn4)[C@H]3SC2)s1` [Cefazolin], the “Halos on strain A” value is recorded as 11.0 mm in [1] (setting [10]) and 12.2 mm in series [1] (setting [11]). In addition, the “Halos on strain B” value in series [2] (setting [10]) was found to be 8.5 mm; in series [2] (setting [11]), 10.1 mm. The figures for the “Halos on strain C” value in series [3] (setting [10]) and in series [3] (setting [11]) were 10.1 mm and 10.9 mm, respectively. For the same molecule, the MIC in series [4] was 0.5 µg/mL (≈ 1.1 µM); in series [5], 0.64 µg/mL (≈ 1.41 µM); in [6], 0.54 µg/mL (≈ 1.19 µM). For the same molecule, the “Bacteriologic test after 5 days of therapy, negative” value (“Bacteriologic test … negative” below) in [7] (setting [12]) is 15. Moreover, the “Bacteriologic test after 5 days of therapy, positive” value (shortened to “Bacteriologic test … positive”) in series [7] (setting [12]) stood at 0. The “% of recovery” value in series [7] worked out at 100%. Also, the Size scored is on record as 17 in series [8] (cephalosporin 25 mg/kg/dose), 4 in series [8] (cephalosporin 50 mg/kg/dose) and 0 in series [8] (cephalosporin 100 mg/kg/dose). For the same molecule, the “Total abscesses in 30 mice” value in [8] turned out to be 8 absc. The “Total score (size scored) in 30 mice” value in series [8] is given as 21. Also, the “Cured infected mice of 30” value in [8] came out at 22.

Turning to `CC1(C)S[C@@H]2[C@H](NC(=O)[C@H](N)c3ccc(O)cc3)C(=O)N2[C@H]1C(=O)O` [Amoxycillin], the results for the “Halos on strain A” value in [1] (setting [13]) and in series [1] (setting [14]) were 12.0 mm and 13.2 mm, respectively. For the same molecule, the “Halos on strain B” value in series [2] (setting [13]) is given as 13.0 mm; in series [2] (setting [14]), 14.0 mm. In addition, the “Halos on strain C” value in [3] (setting [13]) worked out at 9.7 mm; in series [3] (setting [14]), 10.0 mm. Further, the MIC in [4] came out at 0.1 µg/mL (≈ 0.274 µM); in [5], 0.2 µg/mL (≈ 0.547 µM); in series [6], 0.08 µg/mL (≈ 0.219 µM). Also, the entries for the “Bacteriologic test … negative” value in series [7] (setting [15]) and in series [7] (setting [12]) were 0 and 13, respectively. Also, the “Bacteriologic test … positive” value in series [7] (setting [15]) and in series [7] (setting [12]) was 0 each time. Besides, the “% of recovery” value in [7] was determined as 100%.

In series [8] (cephalosporin 25 mg/kg/dose), `CO/N=C(\C(=O)N[C@@H]1C(=O)N2C(C(=O)O)=C(CSc3nc(=O)c(=O)[nH]n3C)CS[C@H]12)c1csc(N)n1` [Ceftriaxone] yielded a Size scored of 17. Also, the Size scored in series [8] (cephalosporin 50 mg/kg/dose) was found to be 14. The Size scored in series [8] (cephalosporin 100 mg/kg/dose) came to 10. In series [8], the “Total abscesses in 30 mice” value is 19 absc, the “Total score (size scored) in 30 mice” value is on record as 41 and the “Cured infected mice of 30” value is 11/30.

For the molecule `CO/N=C(\C(=O)N[C@@H]1C(=O)N2C(C(=O)O)=C(COC(C)=O)CS[C@H]12)c1csc(N)n1` [Cefotaxime], the Size scored in series [8] (cephalosporin 25 mg/kg/dose) was 11. In series [8] (cephalosporin 50 mg/kg/dose), this molecule showed a Size scored of 3. This molecule also registered a Size scored in series [8] (cephalosporin 100 mg/kg/dose) of 0. Besides, in series [8], the “Total abscesses in 30 mice” value is on record as 6 absc, the “Total score (size scored) in 30 mice” value was 14 and the “Cured infected mice of 30” value is on record as 24/30.

In general, solubility refers to how much of the substance goes into solution per volume. A higher solubility goes with a readily soluble substance. Regarding `CC1=C(C(=O)O)N2C(=O)[C@@H](NC(=O)[C@H](N)C3=CCC=CC3)[C@H]2SC1` [Cefradin], the “Halos on strain A” value came to 10.0 mm in series [1] (setting [10]) and 12.1 mm in [1] (setting [11]). The “Halos on strain B” value in series [2] (setting [10]) is 7.0 mm; in series [2] (setting [11]), 9.0 mm. The results for the “Halos on strain C” value in series [3] (setting [10]) and in [3] (setting [11]) were 9.7 mm and 10.0 mm, respectively. Also, the MIC was determined as 4 µg/mL (≈ 11.4 µM) in series [4], 4.8 µg/mL (≈ 13.7 µM) in series [5] and 4.3 µg/mL (≈ 12.3 µM) in [6]. For the same molecule, the “Bacteriologic test … negative” value in series [7] (setting [12]) is given as 15. Further, the “Bacteriologic test … positive” value in series [7] (setting [12]) is listed as 0. Besides, the “% of recovery” value in series [7] is 100%. In [9], this molecule gave a solubility of 4000 µg/mL (≈ 11400 µM).

As to Gentamicin, the “Halos on strain A” value in series [1] (setting [13]) is 12.1 mm; in [1] (setting [16]), 13.1 mm. Further, the “Halos on strain B” value in series [2] (setting [13]) was 11.8 mm; in series [2] (setting [16]), 12.0 mm. Also, the “Halos on strain C” value was 12.8 mm in series [3] (setting [13]) and 13.9 mm in series [3] (setting [16]). Moreover, the “MIC on strain A” value in [4] worked out at 0.125 µg/mL. For the same molecule, the “MIC on strain B” value in series [5] worked out at 0.15 µg/mL. In addition, the “MIC on strain C” value in [6] was found to be 0.139 µg/mL. Further, the “Bacteriologic test … negative” value in series [7] (setting [15]) is given as 0; in series [7] (setting [12]) it was 13. Further, the “Bacteriologic test … positive” value in series [7] (setting [15]) and in series [7] (setting [12]) was 0 each time. The “% of recovery” value in series [7] amounted to 100%.

For the origin of these results see patent US6821959B1, “Antibiotic-natural polysaccharide polymer adducts” (Istituto Biochimico Pavese Pharma S.p.A, priority 1999, dated 2004).
